ChEMBL document CHEMBL4334536, “PROTAC-Mediated Degradation of KRAS Protein for Anticancer Therapeutics” (ACS Med Chem Lett, 2020)

Experiments:
Format in all cases: cell-based
[1] = tested on: NCI-H2030 [G12C]; experiment: Protac activity at E3 ubiquitin ligase/KRAS G12C mutant in human NCI-H2030 cells assessed as maximal KRAS degradation at 0.3 uM after 24 hrs by Western blot analysis relative to control
[2] = tested on: NCI-H2030 [G12C]; experiment: Protac activity at E3 ubiquitin ligase/KRAS G12C mutant in human NCI-H2030 cells assessed as maximal KRAS degradation at 1 uM after 24 hrs by Western blot analysis relative to control
[3] = tested on: NCI-H2030 [G12C]; experiment: Protac activity at E3 ubiquitin ligase/KRAS G12C mutant in human NCI-H2030 cells assessed as maximal KRAS degradation at 3 uM after 24 hrs by Western blot analysis relative to control

Chain of NCI-H2030 [G12C] (as listed by the source, stated change not applied): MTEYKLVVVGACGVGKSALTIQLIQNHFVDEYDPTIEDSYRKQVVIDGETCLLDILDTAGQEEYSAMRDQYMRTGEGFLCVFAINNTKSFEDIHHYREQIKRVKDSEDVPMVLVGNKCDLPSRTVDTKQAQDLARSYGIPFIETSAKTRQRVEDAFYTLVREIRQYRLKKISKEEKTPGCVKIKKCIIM

Compound | Emax [1] [%] | Emax [2] [%] | Emax [3] [%]
CCC(=O)N1CCN(c2nc(NCCC(=O)N(C)CCOCCOCCOCCOCCOc3ccc4c(c3)CN(C3CCC(=O)NC3=O)C4=O)nc3c(F)c(-c4cc(O)cc5ccccc45)c(Cl)cc23)CC1 (stereo not drawn) | < 25 | 25 to 50 | 25 to 50
C=CC(=O)N1CCN(c2nc(NCCC(=O)N(C)CCOCCOCCOCCOCCOCC(=O)N[C@H](C(=O)N3C[C@H](O)C[C@H]3C(=O)N[C@@H](C)c3ccc(-c4scnc4C)cc3)C(C)(C)C)nc3c(F)c(-c4cc(O)cc5ccccc45)c(Cl)cc23)CC1 | < 25 | > 50 | > 50
C=CC(=O)N1CCN(c2nc(NCCC(=O)N(C)CCOCCOCCOCC(=O)N[C@H](C(=O)N3C[C@H](O)C[C@H]3C(=O)N[C@@H](C)c3ccc(-c4scnc4C)cc3)C(C)(C)C)nc3c(F)c(-c4cc(O)cc5ccccc45)c(Cl)cc23)CC1 | < 25 | 25 to 50 | 25 to 50
C=CC(=O)N1CCN(c2nc(NCCC(=O)N(C)CCOCCOCCOCCOCC(=O)N[C@H](C(=O)N3C[C@H](O)C[C@H]3C(=O)N[C@@H](C)c3ccc(-c4scnc4C)cc3)C(C)(C)C)nc3c(F)c(-c4cc(O)cc5ccccc45)c(Cl)cc23)CC1 | < 25 | > 50 | > 50
C=CC(=O)N1CCN(c2nc(NCCC(=O)N(C)CCOCCOCCOCCNc3cccc4c3C(=O)N(C3CCC(=O)NC3=O)C4=O)nc3c(F)c(-c4cc(O)cc5ccccc45)c(Cl)cc23)CC1 (stereo not drawn) | < 25 | 25 to 50 | 25 to 50
CCC(=O)N1CCN(c2nc(NCCC(=O)N(C)CCOCCOCCOCCOCC(=O)N[C@H](C(=O)N3C[C@H](O)C[C@H]3C(=O)N[C@@H](C)c3ccc(-c4scnc4C)cc3)C(C)(C)C)nc3c(F)c(-c4cc(O)cc5ccccc45)c(Cl)cc23)CC1 | < 25 | < 25 | < 25
